These results are taken from patent US10626094B2 (La Jolla Institute of Allergy & Immunology, priority 2014, dated 2020).

Some results are limits rather than exact numbers.

Usually IC50 stands for the concentration that inhibits the measured activity by half.

The target in this assay is LMPTP-A (Low Molecular Weight Protein Tyrosine Phosphatase-A) enzyme (Homo sapiens (Human), UniProt P24666). The experiment in a line: LMPTP primary screening / LMPTP (OMFP) enzyme inhibition assay, fluorescence intensity. The assay is classed as biochemical. As to conditions: LMPTP-A, OMFP substrate, method of Example 2; read-out: IC50. The protocol: This assay attempts to identify inhibitors of the LMPTP-A (Low Molecular Weight Protein Tyrosine Phosphatase-A) enzyme. It is run in 1536-well format and is measured via fluorescence intensity.
Chain of LMPTP-A (Low Molecular Weight Protein Tyrosine Phosphatase-A) enzyme (P24666 whole entry): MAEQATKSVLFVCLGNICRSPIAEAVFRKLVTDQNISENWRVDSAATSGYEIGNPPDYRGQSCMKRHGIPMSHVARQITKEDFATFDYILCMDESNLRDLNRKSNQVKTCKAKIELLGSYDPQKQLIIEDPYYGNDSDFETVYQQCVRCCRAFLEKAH
A listing of materials is provided: • Item, source, catalog no. • LMPTP-A Enzyme Stock Solution (4.22 mg/ml or 206.8 μM), SBMRI Protein Facility, • N/A • OMFP, Sigma, M2629-100MG • Bis-Tris pH 6.0, Fisher Sci, BP301-100 • Triton-X 100, Sigma, T9284 • DTT, Sigma, D9779 • Mol. Grade Water, Mediatech, Inc., 46-000-CM • 1536-well black High base opaque bottom plate, Nexus Biosystems, 00019120
Final assay conditions are: • 0.625 nM LMPTP-A Enzyme • 400 μM OMFP • 50 mM Bis-Tris pH 6.0 • 1 mM DTT • 0.01% Triton-X 100 • 20 μM test compound • 3% DMSO (2% from substrate and 1% from compounds) • 6 μL reaction volume • 50 minutes incubation at room temp
Assay Procedure • 1. Prepare Reagents as described in section F. Recipe. • 2. Using LabCyte Echo, transfer 60 nL from 2 mM test compound source plate into assay plate Col. 5-48 (final concentration of test compounds is 20 μM). 60 nL of DMSO should be transferred to col. 1-4 for positive and negative control wells. • 3. Spin plates at 1000 rpm for 1 minute in centrifuge. • 4. […] Using the Bioraptr, add 3 μL/well of enzyme solution to col. 3-48. • 6. Using the Bioraptr, add 3 μL/well of substrate solution to col. 1-48. • 7. Spin plates at 1000 rpm for 1 minute in centrifuge. • 8. Incubate plates in the dark at room temperature for 50 minutes. • 9. Read plates on PerkinElmer Viewlux using a FI protocol.
As for “2-(3-bromo-4-chloro-2-fluorophenyl)(4-quinolyl)](3-piperidylpropyl)amine [Compound I101]”, the IC50 lay in the range of 0.801 to 5 µM.
For the molecule `CN(C)c1cc(-c2ccccc2C(F)(F)F)nc2ccccc12` [Compound D2, N,N-dimethyl-2-(2-(trifluoromethyl)phenyl)quinolin-4-amine], the IC50 lay within 0.801 to 5 µM.
For the molecule `FC(F)(F)c1ccccc1-c1cc(NCCCN2CCCCC2)c2ccccc2n1` [Compound G1, (3-piperidin-1-yl-propyl)-[2-(2-trifluoromethyl-phenyl)-quinolin-4-yl]-amine], the IC50 fell in the range of 0.801 to 5 µM.
The value for `FC(F)(F)Oc1ccccc1-c1cc(NCCCN2CCCCC2)c2ccccc2n1` [Compound G2, (3-Piperidin-1-yl-propyl)-[2-(2-trifluoromethoxy-phenyl)-quinolin-4-yl]-amine] was 0.2 to 0.8 µM.
Next, `FC(F)(F)Oc1cccc(-c2cc(NCCCN3CCCCC3)c3ccccc3n2)c1` [Compound G3, (3-Piperidin-1-yl-propyl)-[2-(3-trifluoromethoxy-phenyl)-quinolin-4-yl]-amine]: 0.801 to 5 µM.
Next, `FC(F)(F)Oc1ccc(-c2cc(NCCCN3CCCCC3)c3ccccc3n2)cc1` [Compound G4, (3-Piperidin-1-yl-propyl)-[2-(4-trifluoromethoxy-phenyl)-quinolin-4-yl]-amine]: 0.801 to 5 µM.
Turning to `CN(C)c1cc(-c2ccc(OC(F)(F)F)cc2)nc2ccccc12` [Compound G5, N,N-dimethyl-2-(4-(trifluoromethoxy)phenyl)quinolin-4-amine], the IC50 was in the range of 0.801 to 5 µM.
For the molecule `Fc1ccccc1-c1cc(NCCCN2CCCCC2)c2ccccc2n1` [Compound G6, [2-(2-Fluoro-phenyl)-quinolin-4-yl]-(3-piperidin-1-yl-propyl)-amine], the IC50 lay within 0.801 to 5 µM.
The value for `Fc1cccc(-c2cc(NCCCN3CCCCC3)c3ccccc3n2)c1` [Compound G7, [2-(3-Fluoro-phenyl)-quinolin-4-yl]-(3-piperidin-1-yl-propyl)-amine] was 0.801 to 5 µM; that for `Fc1ccc(-c2cc(NCCCN3CCCCC3)c3ccccc3n2)cc1` [Compound G8, [2-(4-Fluoro-phenyl)-quinolin-4-yl]-(3-piperidin-1-yl-propyl)-amine] was 0.801 to 5 µM.
The value for `Cc1cccc(-c2cc(NCCCN3CCCCC3)c3ccccc3n2)c1` [Compound G9, (3-Piperidin-1-yl-propyl)-(2-m-tolyl-quinolin-4-yl)-amine] was 0.801 to 5 µM.
The value for `CN(C)c1ccc(-c2cc(NCCCN3CCCCC3)c3ccccc3n2)cc1` [Compound G10, [2-(4-Dimethylamino-phenyl)-quinolin-4-yl]-(3-piperidin-1-yl-propyl)-amine] was 0.801 to 5 µM; that for `CN(C)c1ccc(-c2cc(N(C)C)c3ccccc3n2)cc1` [Compound G11, [2-(4-Dimethylamino-phenyl)-quinolin-4-yl]-dimethyl-amine] was more than 5 µM.
`c1coc(-c2cc(NCCCN3CCCCC3)c3ccccc3n2)c1` [Compound G12, (2-Furan-2-yl-quinolin-4-yl)-(3-piperidin-1-yl-propyl)-amine]: the IC50 was in the range of 0.801 to 5 µM.
The value for `CN(C)c1cc(-c2ccco2)nc2ccccc12` [Compound G13, (2-Furan-2-yl-quinolin-4-yl)-dimethyl-amine] was more than 5 µM.
As to `c1ccc2c(NCCCN3CCCCC3)cc(-c3ccoc3)nc2c1` [Compound G14, (2-Furan-3-yl-quinolin-4-yl)-(3-piperidin-1-yl-propyl)-amine], the IC50 lay within 0.801 to 5 µM.
In the case of `CN(C)c1cc(-c2ccoc2)nc2ccccc12` [Compound G15, (2-Furan-3-yl-quinolin-4-yl)-dimethyl-amine], the IC50 was more than 5 µM.
As for `c1csc(-c2cc(NCCCN3CCCCC3)c3ccccc3n2)c1` [Compound G16, (3-Piperidin-1-yl-propyl)-(2-thiophen-2-yl-quinolin-4-yl)-amine], the 50% inhibitory concentration (IC50) fell in the range of 0.801 to 5 µM.
Take `CN(C)c1cc(-c2cccs2)nc2ccccc12` [Compound G17, Dimethyl-(2-thiophen-2-yl-quinolin-4-yl)-amine]: the IC50 is more than 5 µM.
As to `Cn1cc(-c2cc(NCCCN3CCCCC3)c3ccccc3n2)cn1` [Compound G18, [2-(1-Methyl-1H-pyrazol-4-yl)-quinolin-4-yl]-(3-piperidin-1-yl-propyl)-amine], the IC50 was more than 5 µM.
The value for `CN(C)c1cc(-c2cnn(C)c2)nc2ccccc12` [Compound G19, Dimethyl[2-(1-methylpyrazol-4-yl)(4-quinolyl)]amine] was more than 5 µM.
For the molecule `Cc1nc(C)c(-c2cc(NCCCN3CCCCC3)c3ccccc3n2)s1` [Compound G20], the IC50 fell in the range of 0.801 to 5 µM.
Regarding `Cc1nc(C)c(-c2cc(N(C)C)c3ccccc3n2)s1` [Compound G21, [2-(2,4-Dimethyl-thiazol-5-yl)-quinolin-4-yl]-dimethyl-amine], the IC50 is more than 5 µM.
In the case of `c1c[nH]c(-c2cc(NCCCN3CCCCC3)c3ccccc3n2)c1` [Compound G22, (3-Piperidin-1-yl-propyl)-[2-(1H-pyrrol-2-yl)-quinolin-4-yl]-amine], the IC50 lay in the range of 0.801 to 5 µM.
Next, `CN(C)c1cc(-c2ccc[nH]2)nc2ccccc12` [Compound G23, Dimethyl-[2-(1H-pyrrol-2-yl)-quinolin-4-yl]-amine]: more than 5 µM; `COc1ccc(-c2cc(NCCCN3CCCCC3)c3cc(C)ccc3n2)cc1` [Compound G24, [2-(4-methoxy-phenyl)-6-methyl-quinolin-4-yl]-(3-piperidin-1-yl-propyl)-amine]: more than 5 µM.
On to `COc1ccc(-c2cc(NCCCN3CCCCC3)c3cc(OC)ccc3n2)cc1` [Compound G25, [6-Methoxy-2-(4-methoxy-phenyl)-quinolin-4-yl]-(3-piperidin-1-yl-propyl)-amine], for which the IC50 is more than 5 µM.
Regarding `COc1ccc(-c2cc(NCCCN3CCCCC3)c3ccc(OC)cc3n2)cc1` [Compound G26, [7-Methoxy-2-(4-methoxy-phenyl)-quinolin-4-yl]-(3-piperidin-1-yl-propyl)-amine], the IC50 is more than 5 µM.
Regarding `COc1ccc(-c2cc(NCCCN3CCCCC3)c3cc(Cl)ccc3n2)cc1` [Compound G27, [6-Chloro-2-(4-methoxy-phenyl)-quinolin-4-yl]-(3-piperidin-1-yl-propyl)-amine], the IC50 was more than 5 µM.
For `COc1ccc(-c2cc(NCCCN3CCCCC3)c3cc(C(F)(F)F)ccc3n2)cc1` [Compound G28, [2-(4-Methoxy-phenyl)-6-trifluoromethyl-quinolin-4-yl]-(3-piperidin-1-yl-propyl)-amine], the IC50 was more than 5 µM.
In the case of `COc1ccc(-c2cc(NCCCN3CCCCC3)c3cc([N+](=O)[O-])ccc3n2)cc1` [Compound G29, [2-(4-Methoxy-phenyl)-6-nitro-quinolin-4-yl]-(3-piperidin-1-yl-propyl)-amine], the IC50 was more than 5 µM.
Regarding `COc1ccc(-c2cc(NCCCN3CCCCC3)c3cc(F)ccc3n2)cc1` [Compound G30, [6-Fluoro-2-(4-methoxy-phenyl)-quinolin-4-yl]-(3-piperidin-1-yl-propyl)-amine], the IC50 lay within 0.801 to 5 µM.
As for `COc1ccc(-c2cc(NCCCN3CCCCC3)c3cc(OC(F)(F)F)ccc3n2)cc1` [Compound G31, [2-(4-Methoxy-phenyl)-6-trifluoromethoxy-quinolin-4-yl]-(3-piperidin-1-yl-propyl)-amine], the IC50 is more than 5 µM.
